For 90 molecules, melting point results are on record in a melting point compilation (Tetko et al.; mined from patent text by program, amines drawn as free bases though some values may be those of a salt).

SMILES strings stand for the structures. A value given as a limit tells only on which side of the number the result lay.

The term melting point denotes the temperature of the solid-liquid transition. `CN1Cc2c(-c3noc(CCl)n3)ncn2-c2ccc(Cl)cc2C1=O` had a melting point of 229 °C.
`O=C(NC1CN2CCC1CC2)c1cccc2oc(-c3ccc(Cl)cc3)nc12` (stereo not given) returned a melting point of 194 to 196 °C.
In turn, `CCCN(CCC(O)c1csc2ccc(F)cc12)C1COc2c(F)ccc(C(N)=O)c2C1` (stereo not given) displayed a melting point of 117 °C.
`O=S1(=O)c2cccc3cccc(c23)N1CCN1CCC(Cc2c[nH]c3ccccc23)CC1` returned a melting point of 184 °C.
`CCc1nc(-c2ncn3c4ccccc4c(=O)n(C)c23)no1` yielded a melting point of 199 to 202 °C.
With `CNC(=O)C1=CC(CF)(CF)Oc2ccc(C(F)(F)F)cc21`, the melting point was 162 to 164 °C.
Regarding `CCNC(=S)Nc1ccc2ncc(Nc3cc(OC)c(OC)c(OC)c3)cc2n1`, the melting point is 237 to 238 °C.
In the case of `CNC(=O)Oc1ccc2oc3ccccc3c2c1`, the melting point lay in the range of 155 to 156 °C.
For `O=C1COc2ccc(C3=Nc4ccccc4SC3c3ccccc3Cl)cc2N1` (stereo not given) the value was 195 to 200 °C; for `COC(=O)/C=C/n1cnc2c(C)cc(C)cc2c1=O`, 139 to 141 °C; for `CC(=CC(=O)c1cccs1)N1CCCC1`, 154 to 156 °C.
Take `CC1(C)NC(=O)N(c2ccc(I)c(C(F)(F)F)c2)C1=O`: the melting point lay in the range of 164 to 165 °C.
On to `COc1ccc(C(=O)O)c(Oc2ccc(C(F)(F)F)cc2NS(=O)(=O)c2cc(C(F)(F)F)cc(C(F)(F)F)c2)c1`, for which the melting point was found to be 182 °C.
Take `O=[N+]([O-])c1cc(CCO)c(NCCO)c([N+](=O)[O-])c1`: the melting point came to 115 °C.
Molecule `CCOC(=O)Cc1cc(C)c(C(=O)c2ccc(C)cc2)n1C` gave a melting point of 90 to 93 °C.
For the molecule `CN(C(=O)CCCOc1ccc2c(c1)CN(CC(=O)O)C(N)=N2)C1CCCCC1`, the melting point fell in the range of 125 to 128 °C.
In turn, `CCOC(=O)C(C)Oc1ccc(-c2ccc(CCNC(=O)c3cc(Cl)ccc3OC)cc2)cc1` (stereo not given) showed a melting point of less than 20 °C.
As for `O=C1C(c2ccccc2)c2cccc3c2N1CCN3` (stereo not given), the melting point lay within 168 to 171 °C.
The molecule `CCC(=O)C1=C(O)CC(c2ccc3c(c2)CCCC3)CC1=O` (stereo not given) registered a melting point of 87 °C.
In the case of `COc1ccc(C2OC(=O)c3cc(OC)c(OC)c(OC)c32)cc1OC` (stereo not given), the melting point fell in the range of 141 to 142 °C.
`CCCCCCCCCCCCCc1c(C(F)(F)F)noc1NS(=O)(=O)c1ccc(-c2ccccc2)cc1` came in with a melting point of 115 to 116 °C.
Molecule `Cc1c(CCCC(=O)O)cccc1C(=O)c1ccc(Cl)cc1` yielded a melting point of 124 °C.
Take `O=C(O)C1CSC(c2cccc(OCCO[N+](=O)[O-])c2)N1` (stereo not given): the melting point was 117 to 119 °C.
For the molecule `O=C(O)c1ccc(C#Cc2ccccc2F)o1`, the melting point is 196 to 198 °C.
The value for `CCOC(=O)C(C)N1C(=O)C(C)Oc2c(N3CCOCC3)nc(C)nc21` (stereo not given) was 80 to 82 °C; that for `O=[N+]([O-])c1cc(O)ccc1NCCO` was 142 °C; that for `CCC#CC(C)(C)NC(=O)C(CC)Oc1cncc(C(=O)O)c1` (stereo not given) was 162 to 164 °C.
As for `CCOC(=O)c1ccc(NC(=O)C(CSC(C)=O)Cc2ccccc2)cc1` (stereo not given), the melting point was in the range of 119 to 121 °C.
The molecule `COCN1C(C)=C(C(=O)OC)C(c2ccccc2C(F)(F)F)C(C(=O)OCOC(=O)C(C)(C)C)=C1C` (single isomer, unassigned; (+)) registered a melting point of 110 to 112 °C.
`O=C(/C(=C\c1ccc(I)cc1)Sc1ccc(Br)cc1)c1ccc(Br)cc1` gave a melting point of 128 to 130 °C.
`CCOC(=O)C(C#N)=NC=C(N)c1ccccc1` returned a melting point of 139 to 140 °C.
As to `N=C(NO)c1ccc(-c2cccc(-c3nc4ccc(C(=N)NO)cc4[nH]3)n2)cc1`, the melting point is more than 290 °C.
The molecule `CC(C)(C)c1nc(C(N)=S)ncc1O` yielded a melting point of 169 to 171 °C.
The value for `NC(=O)Cn1c(=O)ccc2cc(Br)ccc21` was 257 to 258 °C; that for `O=C(O)CC(F)C(=O)c1ccc(-c2ccc(Cl)cc2)cc1` (stereo not given) was 170 to 173 °C.
As to `COc1cc2cc(C(N)=O)sc2cc1OC`, the melting point was in the range of 211 to 213 °C.
Molecule `CCN(C)c1nc2cc(NC(=O)c3c(C(=O)N4CCC4)cnn3C)ccn2n1` returned a melting point of 229 to 232 °C.
Molecule `N#Cc1ccc(Nc2nnc(Cc3ccncc3)c3ccccc23)cc1` displayed a melting point of 228 to 230 °C.
`NC(=O)c1c(C(F)(F)F)oc2cc(O)ccc2c1=O` returned a melting point of more than 310 °C.
`CCOC(=O)c1ncn2c1CNc1ccccc1-2` came in with a melting point of 248 to 250 °C.
In turn, `O=C1CN(N=Cc2ncc(-c3ccc([N+](=O)[O-])cc3)o2)C(=O)N1` registered a melting point of 314 to 316 °C.
In turn, `O=c1[nH]cnc2sc(Br)cc12` gave a melting point of 304 °C.
The value for `COC1(OC)C(=O)Nc2ccc(C(=O)c3ccc(Cl)cc3)cc21` was 170 °C; that for `Cc1cc2c(c3ccc(=O)[nH]c13)OC(CNC(=O)[C@@H](C)NC(=O)OCc1ccccc1)C2` (stereo not given in full) was 221 to 222 °C.
The molecule `CCN(CCC(=O)O)C(=S)Nc1c(C)cccc1C` returned a melting point of 115 to 118 °C.
The value for `COc1ccc(C(=O)CCCCCBr)cc1F` was 47 to 48 °C; that for `Cn1ncc2c1CS(=O)c1cn[nH]c1-2` (stereo not given) was more than 270 °C; that for `O=C(CN1CCN(CCCC(c2ccc(F)cc2)c2ccc(F)cc2)C(C(=O)O)C1)Nc1c(Cl)cccc1Cl` (stereo not given) was 204 °C.
`CC(C)(C)OC(=O)NC1CCCC2(CCCC2)NC1=O` (stereo not given): the melting point is 180 to 181 °C.
`O=C1c2ccccc2C(=O)N1C1CN(C(c2ccccc2)c2ccccc2)C1` yielded a melting point of 118 to 120 °C.
For `CCN(CC)c1c([N+](=O)[O-])cc(C#N)c(N)c1[N+](=O)[O-]` the value was 146 °C; for `CN1CCN(CCCNc2nc(N)c(C(=O)c3ccc(Cl)s3)s2)CC1`, 184 °C.
As to `CC(=O)Oc1cc(C(=O)N2CCC(C(=O)C3CCCCC3)CC2)c([N+](=O)[O-])cc1OC(C)=O`, the melting point was in the range of 160 to 165 °C.
As for `CC(C)(C)OC(=O)CN1C(=O)[C@@H](NC(=O)OCc2ccccc2)[C@H]1CCc1ccco1`, the melting point lay in the range of 82 to 84 °C.
In turn, `COC(=O)c1ncn2c1C(C)N=C(c1ccccc1F)c1cc(Cl)ccc1-2` (stereo not given) registered a melting point of 190 to 191 °C.
Molecule `Cn1ncc(C(=O)N2CC(F)C2)c1C(=O)Nc1ccc2nc(-c3ccccc3)nn2c1` returned a melting point of 243 °C.
Molecule `CCCCCCCCCCCCCCCCCCNC(=O)C(=O)Nc1ccc(O)cc1` displayed a melting point of 192 °C.
`Cc1nc(C[C@H]2CC[C@@](C)(NCC(=O)N3C[C@@H](F)C[C@H]3C#N)C2(C)C)no1` gave a melting point of 121 to 123 °C.
The value for `S=C(NC1CCCc2sccc21)C1CCNCC1` (stereo not given) was 102 °C; that for `O=C(Cl)c1ccc(S(=O)(=O)NC(=O)c2ccccc2)cc1` was 180 to 182 °C.
For the molecule `CCOC(=O)c1cnc2c3ccccc3c(OC)cn2c1=O`, the melting point lay within 190 to 193 °C.
For `CCC(=O)Oc1ccc(S(=O)(=O)N2c3ccccc3-c3ccc(F)cc3C2CC)cc1` (stereo not given) the value was 111 to 112 °C.
The value for `Cc1cc(C=NO)cc(Oc2nc(Cl)nc(Cl)c2C(C)C)c1` was 185 to 187 °C.
In turn, `CC(C)Oc1ccc(Cc2ccc(N)cc2)cc1` had a melting point of 92 to 93 °C.
The value for `N#Cc1c(Cl)csc1NC=O` was 241 °C.
Consider `CN(Cc1cccc(-c2ccc(CC3SC(=O)NC3=O)cc2)c1)C(=O)CCCCC(=O)c1ccccc1` (stereo not given), for which the melting point worked out at 48 °C.
`CCC(C)(Oc1ccc(CC(=O)Nc2cc(C)cc(C)c2)cc1)C(=O)O` (stereo not given) returned a melting point of 131 to 133 °C.
As for `CCOC1C(NC(=O)C(F)(F)F)CC(OC(=O)c2ccc([N+](=O)[O-])cc2)OC1C` (stereo not given), the melting point fell in the range of 148 to 150 °C.
For the molecule `Cc1cc(Cl)nnc1-c1ccc(Br)cc1`, the melting point was in the range of 197 to 200 °C.
For the molecule `Clc1ccc2nc(NCC3CCN(CC4COc5ccccc5O4)CC3)sc2c1` (stereo not given), the melting point is 156 °C.
`NC(=O)c1nn(-c2ccccc2)c2ccccc12` had a melting point of 149 °C.
The value for `O=CNC(C(=O)O)c1ccccc1` (stereo not given) was 170 to 175 °C; that for `CC(=O)OC1(C(=O)COC(=O)c2ccccc2)CCC2C3CC(C)C4=CC(=O)C=CC4(C)C3C(O)CC21C` (stereo not given) was 136 to 138 °C.
For `COC(=O)CC[C@H](NC(=O)c1ccc(CCn2cnc3nc(NC(=O)C(C)(C)C)cc-3c2O)cc1)C(=O)OC`, the melting point worked out at 247 °C.
With `CN1CCN(C(=O)/C=C/CSc2nc(N)cc(Cl)n2)CC1`, the melting point was 155 to 156 °C.
The value for `CC(=O)c1ccc(CNS(=O)(=O)c2ccc(C)cc2)cc1` was 125 to 128 °C; that for `COc1ccc(C(=O)N2c3ccccc3C(Nc3ccc(Br)cc3)CC2C)cc1OC` (stereo not given) was 173 to 175 °C; that for `OCCC1CCc2cc(OCc3ccc(-c4ccccc4)cc3)ccc2C1` (stereo not given) was 101 to 102 °C.
The value for `C#CCN1C(=O)C(C)Oc2cc(F)c(N)cc21` (stereo not given) was 142 to 145 °C.
For `CCOCCOc1ccc(-c2ccc3c(c2)C=C(C(=O)Nc2ccc(CN(C)C4CCOCC4)cc2)CCS3(=O)=O)cc1Cl`, the melting point is 203 to 205 °C.
For the molecule `CCOC(=O)C(C)OCc1cc2cc(Cl)ccc2n1S(=O)(=O)c1cc(OC)ccc1OC` (stereo not given), the melting point is 118 to 120 °C.
`O=C1NCc2c(-c3ccccc3)cccc2N1Cc1ccccc1` yielded a melting point of 198 to 199 °C.
On to `COC(=O)c1ccn2ccnc2c1`, for which the melting point was 143 °C.
With `COc1ccc(-c2cc(-c3ccccc3)[nH]c2C(=O)NCc2ccc(C(=O)Nc3ccccc3S)cc2)cc1`, the melting point fell in the range of 134 to 135 °C.
Turning to `CC(=Cc1cc(Br)ccc1O)[N+](=O)[O-]`, the melting point lay in the range of 95 to 97 °C.
For `NC(=S)Nc1ccc(C2=NNC(=O)Cc3cc4c(cc32)OCO4)cc1` the value was 236 to 238 °C.
The value for `NNC(=O)CCSCCOC1OC(CO)C(O)C(O)C1O` (stereo not given) was 178 to 179 °C; that for `CSc1nc(NC2CCCCC2)c2nonc2n1` was 129 to 130 °C; that for `CC(C)CCOC(=O)C(C)Oc1cc(-c2nn(C)c(C(F)(F)F)c2Cl)c(F)cc1Cl` (stereo not given) was 128 °C.
In turn, `CC(=O)c1ccc(-c2cccnc2)s1` yielded a melting point of 104 to 105 °C.
